Structures are written as SMILES.

We go through one compound from US12440584B2, “Macrocyclic ligands with pendant chelating moieties and complexes thereof” (LUMIPHORE, INC., priority 2018, dated 2025).

Format in all cases: physicochemical
The nature of data set [1]: Luminescence titration of ligand 43 with europium chloride. As to conditions: 383 nm (ligand), 357 nm (complex). As to the method: Titration of ligand 43 was also performed by luminescence (FIG. 5), monitoring the europium signal at 612 nm upon photoexcitation of the solution at 340 nm. The ligand solution used for the UV-vis titration of 43 mentioned above was first diluted 1:10 in TBS buffer. Similarly, the 1.299 mM stock europium solution was separately diluted 1:10 with water. […] The 32.99 μL equivalence point gives extinction coefficients of 14,400 M^−1 cm^−1 at 383 nm and 14,200 M^−1 cm^−1 at 357 nm for 43 and 43 Eu respectively. Averaging the values from both UV-vis and luminescence titration experiments of 43 yields extinction coefficients of 13,700 M^−1 cm^−1 at 383 nm and 13,500 M^−1 cm^−1 at 357 nm for 43 and 43 Eu respectively.

The nature of data set [2]: Photophysical characterization of Eu complexes (UV-vis, luminescence, quantum yield, lifetime). As to conditions: TBS buffer, pH 7.6. The procedure: The europium complexes of ligands 16, 29, 33, 40, and 43 were prepared by separately dissolving each ligand (2 mg) into methanol (200 μL). Excess europium chloride hexahydrate (˜5 equivalents) was dissolved in methanol (200 μL) and the full volume was added to each of the ligand solutions. The solvent was removed, and the residue was dissolved into DMF (50 μL). The europium complexes were then purified by semi-prep HPLC on an Agilent 1260 Infinity instrument using an Eclipse XDB-C18 column (5 μm, 9.4×250 mm). The mobile phase was 10 to 30% acetonitrile in water containing 0.1% trifluoroacetic acid. The volatiles were removed from the HPLC eluents under vacuum, and the residues were separately dissolved into methanol (500 μL) to give methanolic stock solutions of each europium complex with greater than 98% purity. A few drops of these methanolic solutions were evaporated to dryness, and then the residue was dissolved into TBS buffer at a concentration of ca. 3 μM to make aqueous stock solutions (20 mL) with an absorbance of 0.05 (1 cm path length) at 365 nm. […] Quinine sulfate dissolved in 0.05 M sulfuric acid was similarly diluted to a final absorbance of 0.05 at 365 nm, and this solution was similarly (1/6, 2/6, 3/6, 4/6, and 5/6) diluted to afford six quinine sulfate reference samples of evenly spaced concentration. […] By measuring the absorbance and luminescence of these dilute solutions, the quantum yields of the new Eu complexes were determined. A 5 cm path-length quartz cell was used to measure the absorbance of these dilute solutions in order to improve the UV-vis signal-to-noise. Steady state photoluminescence measurements were collected in a 1 cm fluorescence cuvette at 365 nm excitation wavelength, 1 nm resolution, 10 nm excitation slit width, 1 nm emission slit width, and 0.2 sec integration time on an instrument that has been described elsewhere (D'Aleo, A.; Moore, E. G.; Szigethy, G.; Xu, J.; Raymond, K. N. Inorg. Chem. 2009, 48, 9316·). […]

A short description of data set [3]: UV-vis titration with europium chloride for extinction coefficients. As to the method: In order to determine accurate extinction coefficients for 16 and 16·Eu, titration experiments using europium chloride as the titrant were performed. Europium chloride hexahydrate (13.22 mg, 0.03608 mmol) was dissolved into 5 mM citrate buffer (pH=4) using a 100 mL volumetric flask to give a 0.3608 mM europium chloride solution, which was then titrated into a 0.5 mL solution of 16 in TBS buffer (Tris-buffered saline, 50 mM Tris, 150 mM NaCl, pH=7.6) using 5 μL aliquots. The UV-vis spectra were adjusted for the increase in solvent volume due to each injection. The results of the UV-vis titration are plotted in FIG. 3.
The volume of europium chloride corresponds to 16.70 nmol of europium, meaning the starting concentration of ligand 16 was 33.40 μM. […] These absorbance and concentration values yield extinction coefficients of 13,600 M^−1 cm^−1 and 14,300 M^−1 cm^−1 for the ligand 16 and the complex 16·Eu respectively.
In order to determine accurate extinction coefficients for 43 and 43 Eu, titration experiments using europium chloride as the titrant were performed. Europium chloride hexahydrate (47.58 mg, 0.1299 mmol) was dissolved into 50 mM citrate buffer (pH=4) using a 10 mL volumetric flask to give a 12.99 mM europium chloride solution, which was then transferred to a 100 mL volumetric flask and diluted 1:10 with water. The resulting 1.299 mM europium chloride solution (in 5 mM citrate buffer) was then titrated into a 1 mL solution of 43 in TBS buffer using 5 μL aliquots. The UV-vis spectra were adjusted for the increase in solvent volume due to each injection. The results of the UV-vis titration are plotted in FIG. 4.
The volume of europium chloride corresponds to 47.46 nmol of europium, meaning the starting concentration of ligand 43 was 47.46 μM. […] These absorbance and concentration values yield extinction coefficients of 13,000 M^−1 cm^−1 and 12,800 M^−1 cm^−1 for the ligand and complex respectively.

With `NCCOCCNC(=O)C1CCCN(C(=O)c2cccc(=O)n2O)CCCNC(=O)c2ccc(n(O)c2=O)C(=O)N[C@@H]2COC[C@@H]2NC(=O)c2ccc(c(=O)n2O)C(=O)NCCCN1C(=O)c1cccc(=O)n1O` (some centres unmarked) [Compound 43], in data set [1], the “extinction coefficient, average of UV-vis and luminescence titrations” value is 13,700 M^−1 cm^−1. Moreover, in data set [1] (luminescence titration), the extinction coefficient is on record as 14,400 M^−1 cm^−1. Further, in data set [2], the “ε260/ε at λmax” value stood at 1.96, the “ε280/ε at λmax” value is 1.27 and the λmax was 383 nm. For the same compound, the lambda max in data set [3] (UV-vis titration, TBS buffer) is listed as 383 nm. The extinction coefficient in data set [3] (UV-vis titration, at lambda max) was 13,000 M^−1 cm^−1. Besides, the “ε at λmax” value in data set [3] (measured by europium titration, TBS buffer) is on record as 13,700 M^−1cm^−1.
